Assay results from article PMC10215804, “Exploring Alternative Pathways to Target Bacterial Type II Topoisomerases Using NBTI Antibacterials: Beyond Halogen-Bonding Interactions” (Antibiotics, 2023).

How the values were obtained:
E. coli topoIV = molecular target: T1, E. coli topoIV (Escherichia coli, UniProt P0AFI2); assay: topoIV relaxation inhibition assay (high-throughput plate assay); type: biochemical
T1 construct: purchased Inspiralis (Norwich, UK)
Description: To determine the IC50 values of the compounds for S. aureus and E. coli, a DNA gyrase supercoiling high-throughput plate assay and a topoIV relaxation high-throughput plate assay were performed. Assay kits and black streptavidin-coated 96-well microtiter plates are available from Inspiralis (Norwich, UK). For pre-screening, an inhibitor concentration of 100 μM was used. […] A nonlinear regression-based fit of the inhibition curves was used, with the log [inhibitor] versus slope of the reaction variables (four parameters) and a symmetric equation. […] To determine IC50 values, two independent repetitions were performed and the average was calculated.

[1] = Metabolic activity assessment (cytotoxicity), CellTiter 96 Aqueous One; type: cell-based; settings: human, 72 h treatment, means of three independent measurements ± SD
Description: HUVEC (ATCC® CRL-1730™) and HepG2 (ATCC® HB-8065™) cell lines were cultured in Dulbecco’s Modified Eagle Medium (DMEM; Sigma-Aldrich, St. Louis, MO, USA) supplemented with 10% heat-deactivated FBS (Gibco, Grand Island, NE, USA), 2 mM L-glutamine, 100 U/mL penicillin, 100 μg/mL streptomycin (all from Sigma-Aldrich, St. Louis, MO, USA) in a humidified chamber at 37 °C and 5% CO2. The experiments were carried out on passages 4–7 for both cell lines. The tested compounds were dissolved in DMSO and further diluted in culture medium to a desired final concentration. The cells were then seeded into 96-well plates at 5 × 10^4 cells/mL (100 μL/well) or 8 × 10^4 cells/mL (100 μL/well) for HUVEC and HepG2, respectively. The cells were then incubated for 24 h to allow attachment onto the wells. The cells were treated with 1 μM and 50 μM of each compound of interest, or the corresponding vehicle as control. […] Their metabolic activity was assessed after 72 h treatment using a CellTiter 96 Aqueous One Solution Cell Proliferation Assay (Promega, Madison, WI, USA), in accordance with the manufacturer’s instructions. The absorbance was measured at 492 nm on an automated microplate reader, Tecan Spark (Tecan Group Ltd., Männedorf, CH, Switzerland). Data are presented as the percentage of metabolic activity of control cells stimulated with vehicle, or as an IC50 value (mean ± SD) from three independent experiments, each conducted in triplicate (for screening) or duplicate (for IC50 determination). IC50 values were calculated using a non-linear regression model and with Graph Pad Prism 9 software.

T1 sequence (P20083 whole entry): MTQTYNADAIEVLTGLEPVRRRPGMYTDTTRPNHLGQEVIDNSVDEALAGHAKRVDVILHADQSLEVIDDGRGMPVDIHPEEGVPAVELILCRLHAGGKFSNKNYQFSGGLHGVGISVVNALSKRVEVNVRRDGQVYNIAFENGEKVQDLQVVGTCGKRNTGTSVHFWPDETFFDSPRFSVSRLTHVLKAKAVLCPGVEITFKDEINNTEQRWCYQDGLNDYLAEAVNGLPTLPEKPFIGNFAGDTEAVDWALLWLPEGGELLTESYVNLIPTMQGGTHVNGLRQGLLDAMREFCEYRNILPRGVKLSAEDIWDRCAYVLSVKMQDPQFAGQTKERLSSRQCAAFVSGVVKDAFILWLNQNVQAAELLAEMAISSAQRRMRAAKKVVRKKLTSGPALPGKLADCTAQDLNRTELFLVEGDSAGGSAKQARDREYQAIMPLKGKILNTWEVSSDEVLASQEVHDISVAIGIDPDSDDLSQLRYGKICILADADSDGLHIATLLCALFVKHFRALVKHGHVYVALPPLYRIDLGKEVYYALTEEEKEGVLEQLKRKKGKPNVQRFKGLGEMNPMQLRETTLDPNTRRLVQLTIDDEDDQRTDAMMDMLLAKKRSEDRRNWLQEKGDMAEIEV
T1 sequence (P0AFI2 whole entry): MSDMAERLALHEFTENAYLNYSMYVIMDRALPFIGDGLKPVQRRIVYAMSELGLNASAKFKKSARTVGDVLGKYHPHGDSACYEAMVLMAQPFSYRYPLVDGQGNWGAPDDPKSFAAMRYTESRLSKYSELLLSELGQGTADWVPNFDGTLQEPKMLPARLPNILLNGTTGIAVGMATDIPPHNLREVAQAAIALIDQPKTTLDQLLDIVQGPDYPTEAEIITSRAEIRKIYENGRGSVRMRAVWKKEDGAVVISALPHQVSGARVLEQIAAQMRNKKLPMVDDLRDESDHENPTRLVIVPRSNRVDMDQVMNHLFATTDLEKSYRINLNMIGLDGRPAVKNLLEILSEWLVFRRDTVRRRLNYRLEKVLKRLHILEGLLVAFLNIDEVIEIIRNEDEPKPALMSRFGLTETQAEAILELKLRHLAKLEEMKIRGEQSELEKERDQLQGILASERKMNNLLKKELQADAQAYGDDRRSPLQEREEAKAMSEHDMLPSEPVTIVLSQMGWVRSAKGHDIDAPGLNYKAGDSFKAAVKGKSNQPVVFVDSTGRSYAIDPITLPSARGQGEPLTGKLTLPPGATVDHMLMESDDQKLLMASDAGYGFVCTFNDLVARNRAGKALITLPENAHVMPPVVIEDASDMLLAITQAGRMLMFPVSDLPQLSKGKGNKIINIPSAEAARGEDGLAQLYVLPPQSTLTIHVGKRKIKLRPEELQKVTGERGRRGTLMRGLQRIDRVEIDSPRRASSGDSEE

SMILES	IC50 (E. coli topoIV)	IC50 at 72 h ([1]; HUVEC cells (ATCC CRL-1730))	IC50 at 72 h ([1]; HepG2 cells (ATCC HB-8065))
COc1ccc2nccc(CCN3CCC(NCc4ccc(C)cc4)CC3)c2n1 [Compound 5, 1-(2-(6-Methoxy-1,5-naphthyridin-4-yl)ethyl)-N-(4-methylbenzyl)piperidin-4-amine]	0.089 ± 0.019 µM	36.5 ± 9.82 µM	20 ± 3.01 µM
COc1ccc2nccc(OCC3CCC(NCc4ccc(C)cc4)CC3)c2n1 (stereo not drawn) [Compound 6]	2.89 ± 0.88 µM	36.6 ± 7.91 µM	22.5 ± 2.7 µM
COc1ccc2nccc(OCC3CCC(NCc4ccc(C)cc4)CO3)c2n1 (stereo not drawn) [Compound 7, 6-(((6-Methoxy-1,5-naphthyridin-4-yl)oxy)methyl)-N-(4-methylbenzyl)tetrahydro-2H-pyran-3-amine]	1.53 ± 0.043 µM	> 50 µM	> 50 µM
COc1ccc2nccc(C(O)CC3CCC(NCc4ccc(C)cc4)CC3)c2n1 (stereo not drawn) [Compound 8, 1-(6-Methoxy-1,5-naphthyridin-4-yl)-2-(4-((4-methylbenzyl)amino)cyclohexyl)ethan-1-ol]	0.083 µM	33.1 ± 6.13 µM	22.3 ± 0.36 µM
